According to patent publication US11141397B2, “Composition for improving efficacy of L-DOPA treatment” (priority 2017, dated 2021):
“Also recorded” adds a separate entry of the source.

Test system: intrastriatal rotenone mouse model for PD
Test: Rotarod test (motor function) in the intrastriatal rotenone model
Format: in vivo, C57BL/6J mice
Protocol: Forty-eight seven week-old C57BL/6J mice (Charles River, The Netherlands) were housed at room temperature under a 12 h light/dark cycle. Food and water were provided ad libitum. […] Mice underwent stereotaxic surgery under isoflurane anesthesia: a hole was drilled in the skull and a cannula inserted in the right striatum at the following stereotaxic coordinates: AP +0.4, ML -2.0 from bregma, and DV -3.3 below dura. Rotenone-treated animals were injected with 5.4 μg of freshly prepared rotenone solution (dissolved in 2 μl DMSO). Sham-treated animals were injected with the vehicle (2 μl DMSO). 93 days after surgery the mice were euthanized by decapitation. The motor performance of each mouse was assessed in the Rotarod test as described in Inden et al. “Neurodegeneration of mouse nigrostriatal dopaminergic system induced by repeated oral administration of rotenone is prevented by 4-phenylbutyrate, a chemical chaperone” J. […] Briefly, mice were placed on an accelerating rod with speeds starting with 2 rpm and gradually increasing to 20 rpm. Time to first fall was recorded for a maximum of 300 s. […] Animals were divided into four groups of 12 animals (Sham+CD, Sham+AD, Rotenone+CD, and Rotenone+AD). […] The AD also contained supplementary amounts of choline, phospholipids, selenium, folic acid, and vitamins B6, B12, C, D, and E, above standard levels in the control diet. […] The rotarod test was started 1.5h after benserazide administration and performed as described below. […] ANOVAs were followed by a Tukey's multiple comparison test when appropriate. For the rotarod test performance over time, data were analyzed with a general linear model repeated measure ANOVA with the within subject factor time and the between subject factors surgery and diet. […] Analyses were performed using SPSS 22.0.

What does the source list for N[C@@H](Cc1ccc(O)c(O)c1)C(=O)O [levodopa, L-3,4-di-hydroxy-phenylalanine]?
rotarod performance (time on rotarod) (days 26 and 27 after surgery, 60 minutes after 20 mg/kg oral levodopa vs vehicle, before dietary intervention, F(1,92)=24.77, p<0.0001): overall effect of levodopa on the animals' motor performances; effect on rotenone-induced motor dysfunction (rotarod) (overall effect, day 65-93, FIG. 1, three-way ANOVA): there was an effect; also recorded: alleviated rotenone-induced motor dysfunction; ability to remain on the rod (rotenone-injected mice on AD, levodopa 10 or 20 mg/kg vs saline or 5 mg/kg, day 65-93, p<0.001): better ability to remain on the rod; rotarod performance (rotenone-treated animals on CD, levodopa 20 mg/kg vs 5 mg/kg or saline, day 65-93, p<0.01): performed significantly better
